Test system: pruritus and skin lesions associated with allergic dermatitis in dogs
Experiment: Control of pruritus and skin lesions associated with allergic dermatitis in dogs (four-arm, blinded, randomized, placebo-controlled study)
Assay type: in vivo
Conditions: for Treatment success LSMean (response rate): oral tablets (Form II) once daily, success = 2 unit or more reduction from baseline on 10-unit owner-assessed pruritus VAS in at least 5 of first 7 treatment days, generalized linear mixed model
Procedure: Control of Pruritus and Skin Lesions Associated with Allergic Dermatitis in Dogs
This study evaluated 2-(3-(4-(7H-pyrrolo[2,3-d]pyrimidin-4-yl)-1H-pyrazol-1-yl)-1-(cyclopropylsulfonyl)azetidin-3-yl)acetonitrile for control of pruritus and skin lesions associated with allergic dermatitis in dogs.
Oral tablets were prepared containing Form II 2-(3-(4-(7H-pyrrolo[2,3-d]pyrimidin-4-yl)-1H-pyrazol-1-yl)-1-(cyclopropylsulfonyl)azetidin-3-yl)acetonitrile, as follows. Oral tablet blends were prepared containing crystal Form II 2-(3-(4-(7H-pyrrolo[2,3-d]pyrimidin-4-yl)-1H-pyrazol-1-yl)-1-(cyclopropylsulfonyl)azetidin-3-yl)acetonitrile, microcrystalline cellulose, pregelantinized starch, dicalcium phosphate dehydrate, oxide pigment, and magnesium stearate. The tablet blends were pressed giving tablet cores containing 2.4 mg, 3.6 mg, 5.4 mg, and 16 mg of crystal Form II 2-(3-(4-(7H-pyrrolo[2,3-d]pyrimidin-4-yl)-1H-pyrazol-1-yl)-1-(cyclopropylsulfonyl)azetidin-3-yl)acetonitrile, as well as a placebo core. The tablet cores were coated with a mixture containing water and Opadry 20A150011 Red, thereby giving the final oral tablets for the study.
A four-arm, blinded, randomized, placebo-controlled study was conducted to assess the efficacy of daily administration of 2-(3-(4-(7H-pyrrolo[2,3-d]pyrimidin-4-yl)-1H-pyrazol-1-yl)-1-(cyclopropylsulfonyl)azetidin-3-yl)acetonitrile for control of pruritus and skin lesions associated with allergic dermatitis in dogs. Subjects were randomized to one of the following treatment arms: API-containing Tablets, 0.25-0.40 mg/kg Body Weight; API-containing Tablets, 0.40-0.60 mg/kg Body Weight; API-containing Tablets, 0.60-0.80 mg/kg Body Weight; and Placebo Tablets, 0.0 mg/kg Body Weight.
Dogs enrolled in the study received once daily treatment for approximately 28 days. Baseline data (clinical history, concomitant therapies, body weight, physical examinations and assessments of pruritus and atopic dermatitis) were collected for each dog at enrollment (Day 0). Additional health assessments, physical examinations, body weight measurements, assessments of pruritus and atopic dermatitis, and collection of blood samples for hematology, serum chemistry and pharmacokinetic (PK) analysis occurred consistent with standard testing protocols.
The primary effectiveness variable was treatment success. A treatment success was defined as a 2 unit or more reduction from baseline on the 10-unit owner-assessed pruritus Visual-Analog Scale (VAS) in at least 70% of the first 7 treatment days (i.e., in at least 5 of the first 7 treatment days). Dogs withdrawn from the study within the first 7 days of treatment due to a perceived lack of effectiveness were considered treatment failures.
Random effects were fit for site and site treatment with a variance component covariance structure and a compound symmetry covariance structure was fit for individual dogs.

N#CCC1(n2cc(-c3ncnc4[nH]ccc34)cn2)CN(S(=O)(=O)C2CC2)C1 [2-(3-(4-(7H-pyrrolo[2,3-d]pyrimidin-4-yl)-1H-pyrazol-1-yl)-1-(cyclopropylsulfonyl)azetidin-3-yl)acetonitrile]
Treatment success LSMean (response rate) (0.25-0.40 mg/kg): 0.4640 | Treatment success LSMean (response rate) (0.40-0.60 mg/kg): 0.5590 | primary endpoint for treatment success (highest dose group 0.6-0.8 mg/kg once daily, minimum effective dose = success in at least 50% of the dogs): achieved the primary endpoint for treatment success | estimated marginal mean response rate compared with placebo rate (low dose (0.24-0.4 mg/kg) once daily): higher than the placebo rate | estimated marginal mean response rate compared with placebo rate (medium dose (0.4-0.6 mg/kg) once daily): higher than the placebo rate | improvement in lesion scores (once daily 0.6-0.8 mg/kg, at day 28): significant improvement in lesion scores | improvements in pruritus (once daily dosing with 0.6-0.8 mg/kg, from first dose): significant improvements in pruritus from first dose
